Results published in ChEMBL document CHEMBL1201862, “PubChem BioAssay data set” (2004).
Calls of active or inactive are those of the source.

Key:
[1] = Trypanosoma cruzi growth suppression in host cells – NIH3T3 host cells, beta-gal luminescence, confirmation (AID 2044); type: functional, cell-based;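 also: intracellular parasites grown in NIH/3T3 mouse fibroblasts as host cells; luminescent beta-galactosidase reporter signal from transgenic T. cruzi replicating inside host cells; inhibitors lower the luminescence signal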
[2] = NIH3T3 cell viability loss – ATP luminescence, mouse fibroblasts, counter-screen, dose response (AID 2010); type: functional, cell-based;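 also: cells exposed to compound for about 90 hours before reading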
[3] = Fluorescence-based cell-based high throughput dose response assay for inhibitors of the interaction of nucleotide-binding oligomerization domain containing 2 (NOD2) and the receptor-interacting serine-threonine kinase 2 (RIPK2).; type: functional; settings: Homo sapiens
Beta Lactamase = Beta Lactamase (Pseudomonas aeruginosa, UniProt Q932Y6); test: BLA reporter interference, concentration series – BLA reporter cells, FRET fluorescence, artefact control for NOD2-RIPK2 interaction inhibitor project, dose response (AID 651552); type: functional, cell-based
Paired box protein Pax-8 = Paired box protein Pax-8 (Homo sapiens, UniProt Q06710); test: PAX8 transcriptional activity inhibition in RMG-I – RMG-I cells, luciferase, cherry-pick, dose response (AID 687027); type: functional, cell-based;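 also: luciferase reporter driven by Pax8 target thyroperoxidase promoter measured by SteadyGlo luminescence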
[4] = biological target: 26S proteasome non-ATPase regulatory subunit 14 (Homo sapiens, UniProt O00487); test: inhibition of proteasome subunit RPN11 – biochemical, fluorescence polarization, uHTS hits, confirmation (AID 602368); type: functional
[5] = biological target: 72 kDa type IV collagenase (Homo sapiens, UniProt P08253); test: Dose Response validation of uHTS RPN11 inhibitor hits using a MMP-2 Fluorescence assay.; type: functional
Prothrombin = Prothrombin (Bos taurus, UniProt P00735); test: thrombin protease inhibitors – biochemical, fluorescence polarization, uHTS hits, dose response (AID 602369); type: functional
[6] = Counterscreen for inhibitors of Trypanosoma brucei methionyl tRNA synthetase (MetRS): Luminescence-based cell-based high throughput dose response assay to identify compounds that are cytotoxic to Jurkat human T lymphocyte cells.; type: functional
[7] = biological target: T1, Sentrin-specific protease 1 (Homo sapiens, UniProt Q9P0U3); test: SENP1 catalytic domain blockers, concentration series – biochemical, kinetic FRET, dose response (AID 651697); type: functional; settings: read-out: IC50_Mean
T1 sequence (Q9P0U3 whole entry): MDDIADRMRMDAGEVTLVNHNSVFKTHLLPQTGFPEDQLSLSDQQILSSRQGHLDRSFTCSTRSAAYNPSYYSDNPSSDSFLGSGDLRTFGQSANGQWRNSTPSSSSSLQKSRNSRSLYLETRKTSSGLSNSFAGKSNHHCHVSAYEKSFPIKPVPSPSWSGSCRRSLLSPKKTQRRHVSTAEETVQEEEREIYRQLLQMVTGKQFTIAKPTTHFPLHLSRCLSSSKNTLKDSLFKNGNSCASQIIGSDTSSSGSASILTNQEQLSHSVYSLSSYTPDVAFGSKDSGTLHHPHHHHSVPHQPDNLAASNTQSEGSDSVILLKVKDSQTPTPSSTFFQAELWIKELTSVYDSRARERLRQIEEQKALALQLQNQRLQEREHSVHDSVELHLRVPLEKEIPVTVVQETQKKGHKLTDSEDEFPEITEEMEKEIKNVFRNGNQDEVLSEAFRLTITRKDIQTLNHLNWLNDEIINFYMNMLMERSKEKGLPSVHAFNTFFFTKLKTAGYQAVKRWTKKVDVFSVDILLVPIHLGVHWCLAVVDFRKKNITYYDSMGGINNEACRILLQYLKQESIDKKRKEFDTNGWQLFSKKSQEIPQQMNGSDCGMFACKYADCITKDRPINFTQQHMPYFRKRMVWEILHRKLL

[8] = biological target: T1, Sentrin-specific protease 1; test: Dose response confirmation of small molecule inhibitors of the catalytic domain of the SUMO protease, SENP1 in a FRET assay.; type: functional; settings: read-out: IC50_Mean
[9] = viability loss in HeLa cells – cytotoxicity control for MgcRacGAP inhibitor project, dose response (AID 624300); type: functional
[10] = biological target: T2, Rac GTPase-activating protein 1 (Homo sapiens, UniProt Q9H0H5); test: blockers of MgcRacGAP-driven Rac1 GTP hydrolysis – biochemical, ADP Hunter fluorescence, primary and confirmatory, confirmation (AID 624330); type: functional
T2 sequence (Q9H0H5 whole entry): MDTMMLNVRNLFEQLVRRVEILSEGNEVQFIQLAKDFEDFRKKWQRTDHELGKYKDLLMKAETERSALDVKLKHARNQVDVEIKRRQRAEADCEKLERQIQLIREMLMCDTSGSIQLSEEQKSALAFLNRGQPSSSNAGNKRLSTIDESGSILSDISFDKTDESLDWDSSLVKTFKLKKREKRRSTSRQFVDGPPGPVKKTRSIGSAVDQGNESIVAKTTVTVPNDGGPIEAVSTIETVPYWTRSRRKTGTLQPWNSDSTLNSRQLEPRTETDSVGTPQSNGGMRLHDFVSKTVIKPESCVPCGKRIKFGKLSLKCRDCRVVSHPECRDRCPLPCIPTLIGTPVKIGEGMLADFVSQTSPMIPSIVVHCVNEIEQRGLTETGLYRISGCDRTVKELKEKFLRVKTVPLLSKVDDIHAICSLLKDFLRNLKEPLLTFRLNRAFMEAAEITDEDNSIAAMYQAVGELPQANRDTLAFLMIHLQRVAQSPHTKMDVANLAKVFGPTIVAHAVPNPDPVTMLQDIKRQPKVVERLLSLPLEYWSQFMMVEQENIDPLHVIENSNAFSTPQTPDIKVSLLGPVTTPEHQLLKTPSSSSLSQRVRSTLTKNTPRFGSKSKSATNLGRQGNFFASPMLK

26S proteasome non-ATPase regulatory subunit 14, sequence (O00487 whole entry): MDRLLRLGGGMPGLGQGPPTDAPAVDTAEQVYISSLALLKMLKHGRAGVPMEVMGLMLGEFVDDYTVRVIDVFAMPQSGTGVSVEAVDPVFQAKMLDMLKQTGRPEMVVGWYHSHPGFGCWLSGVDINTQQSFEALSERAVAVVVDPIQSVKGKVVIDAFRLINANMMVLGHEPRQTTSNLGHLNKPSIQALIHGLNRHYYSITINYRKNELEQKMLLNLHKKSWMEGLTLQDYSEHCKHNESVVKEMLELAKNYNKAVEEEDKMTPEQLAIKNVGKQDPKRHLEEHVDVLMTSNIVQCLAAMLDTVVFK
72 kDa type IV collagenase, sequence (P08253 whole entry): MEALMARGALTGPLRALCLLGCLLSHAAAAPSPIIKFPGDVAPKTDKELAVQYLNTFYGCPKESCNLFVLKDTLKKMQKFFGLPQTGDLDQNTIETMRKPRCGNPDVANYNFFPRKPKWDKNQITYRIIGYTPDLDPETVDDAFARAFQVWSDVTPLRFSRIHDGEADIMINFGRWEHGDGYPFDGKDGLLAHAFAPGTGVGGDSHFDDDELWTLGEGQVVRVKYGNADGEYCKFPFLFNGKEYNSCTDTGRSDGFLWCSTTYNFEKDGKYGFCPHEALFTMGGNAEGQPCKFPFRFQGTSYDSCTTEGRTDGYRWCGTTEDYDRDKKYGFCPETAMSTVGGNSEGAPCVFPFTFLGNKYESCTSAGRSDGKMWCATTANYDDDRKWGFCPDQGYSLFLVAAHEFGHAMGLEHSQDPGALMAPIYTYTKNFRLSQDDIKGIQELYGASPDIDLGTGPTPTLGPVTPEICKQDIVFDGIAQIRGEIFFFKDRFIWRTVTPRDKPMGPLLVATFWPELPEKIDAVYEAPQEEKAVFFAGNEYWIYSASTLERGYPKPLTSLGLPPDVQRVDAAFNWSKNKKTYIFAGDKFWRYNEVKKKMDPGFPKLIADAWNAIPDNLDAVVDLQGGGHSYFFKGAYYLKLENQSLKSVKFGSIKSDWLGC
Paired box protein Pax-8, sequence (Q06710 whole entry): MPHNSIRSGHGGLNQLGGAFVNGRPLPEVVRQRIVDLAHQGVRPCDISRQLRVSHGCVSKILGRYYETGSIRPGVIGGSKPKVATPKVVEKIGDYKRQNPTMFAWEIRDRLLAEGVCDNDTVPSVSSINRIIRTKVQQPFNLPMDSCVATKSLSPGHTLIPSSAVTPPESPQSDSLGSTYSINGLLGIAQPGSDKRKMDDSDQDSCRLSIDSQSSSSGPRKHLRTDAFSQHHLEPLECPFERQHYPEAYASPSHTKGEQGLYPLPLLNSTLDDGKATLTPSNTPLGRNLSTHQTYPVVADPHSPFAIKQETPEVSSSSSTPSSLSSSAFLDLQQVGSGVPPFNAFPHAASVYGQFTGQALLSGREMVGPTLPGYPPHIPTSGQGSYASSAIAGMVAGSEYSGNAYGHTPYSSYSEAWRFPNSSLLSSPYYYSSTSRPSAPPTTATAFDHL
Beta Lactamase, sequence (Q932Y6 whole entry): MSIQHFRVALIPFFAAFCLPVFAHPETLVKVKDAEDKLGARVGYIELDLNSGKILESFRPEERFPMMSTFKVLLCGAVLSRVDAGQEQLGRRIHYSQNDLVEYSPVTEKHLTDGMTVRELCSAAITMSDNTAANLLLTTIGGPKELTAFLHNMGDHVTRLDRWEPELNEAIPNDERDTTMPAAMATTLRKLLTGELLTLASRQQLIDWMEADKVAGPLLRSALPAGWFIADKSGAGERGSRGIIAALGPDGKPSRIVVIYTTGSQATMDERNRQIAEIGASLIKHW

For `COc1ccc(OC)c2sc(N(CCCN(C)C)C(=O)CCS(=O)(=O)c3ccccc3)nc12`, the EC50 [1] was 4.32 µM (active), the EC50 [2] was 6.44 µM (active) and the IC50 [3] was 2.06 µM (active). For the same compound, the IC50 (Beta Lactamase) was 32.1 µM (inactive) and the AC50 (Paired box protein Pax-8) was 4.77 µM (active).

In the case of `Cc1nnc(SCc2nc3scc(-c4ccccc4)c3c(=O)[nH]2)s1`, the IC50 [4] is reported as 98.6 µM (active), the IC50 [5] is reported as > 100 µM (inactive) and the IC50 (Prothrombin) is reported as 85.3 µM (active).

In the case of `COc1ccc(NC(=O)COC(=O)CCCOc2ccc(Cl)cc2Cl)cc1`, the IC50 [6] is reported as 83.3 µM (inactive).

With `COc1ccc(N2C(=O)C3C(C2=O)C(C(=O)c2ccccc2)N2CCCC32)cc1` (stereo unspecified) the IC50 [7] was 31 µM (inactive) and the IC50 [8] was 11 µM (active).

For `CC(=O)N1CCc2cc(NN=C3C(=O)CCCC3=O)ccc21`, the IC50 [4] was 30.2 µM (active), the IC50 [5] was > 100 µM (inactive) and the IC50 (Prothrombin) was 43.2 µM (active).

For `c1ccc(CCNCCCOc2cccc3ccccc23)cc1`, the CC50 [9] was 75.9 µM (active) and the IC50 [10] was 156 µM (active).
